Patent publication US12215112B2, “CD151 inhibitors” (ESFAM BIOTECH PTY LTD, priority 2020, dated 2025)

System: PC3 cells
Experiment: xCELLigence RTCA real-time cell invasion assay (CIM plate, Matrigel) on PC3 prostate cancer cells
Assay type: cell-based
Conditions: Homo sapiens, PC-3, compound 25 uM to 1 uM, cell index monitored for 72 hours, four-parameter dose-response curve, read-out: IC50, Effect of compounds on the invention on prostate cancer cells
Method: The media antibiotics and serum were purchased from Invitrogen (Life Technologies). PC3 cells were purchased from ATCC (Granville, NSW, Australia). PC3 cells were expanded in cell culture T75 flasks with vented cap and then preserved in low passage number. The medium used for PC3 cells was RPMI (GlutaMAX) supplemented with 10% FCS and 1% penicillin/streptomycin (culture media). The cells were maintained at 37° C. in a humidified 95% (v/v) air/5% (v/v) CO2 environment and were grown up to 80% confluence.
XCELLigence® real-time cell analysis (RTCA) instrument (ACEA Biosciences), 16-well ACEA CIM-Plates, 16-well ACEA E-Plat and assembly tool were purchased from ELITechGroup empowering IVD (Braeside, Australia). The Matrigel was purchased from Corning (Australia).
To measure cell invasion under compound treatment the upper chamber of the CIM plate was coated with 5% Matrigel diluted in SF RPMI (20 μl) and incubated in a 37° C. tissue culture incubator for four hours. Using the assembly tool to support the chambers the lower chamber was filled with (160 μl) of culture media containing the compound in specific concertation from 25 uM to 1 uM and two controls (DMSO 0.1% and ESFAM 4C 10 uM) (see the schematic in FIG. 1). Once the upper chamber was placed on the top of the lower chamber it was loaded with (40 μl) serum-free (SF) RPMI containing the compound as previously stated. After one hour calibration in 37° C., plates were placed into the xCELLigence station, and the base-line electric impedance was measured to confirm that all wells and connections were working properly. In case of connection problem, the software automatically informs the researcher about the nature of the problem in the message section. Subsequently cells were trypsinized and upon harvesting and counting they were diluted in SF RPMI to desired density (3×10^4) and seeded (100 μl) in the wells. After 30 minutes of incubation in room-temperature to allow cell attachment the plates were loaded in the xCELLigence RTCA DP machine. The cell invasion was monitored in real-time for the duration of 72 hours. […]
The xCELLigence system automatically monitored the electrical impedance value of each well and expressed as a cell index (CI) value for the duration of 72 hours. The data for treatments was automatically grouped as the mean±standard deviation. The software version used in these experiments is 1.2.1. The electronic record of the experimental data is automatically saved in file that cannot be altered or changed by the researcher.
Statistical analysis was performed using Microsoft® Office EXCEL and GraphPad Prism 7. The IC50 was calculated from the four-parameter dose-response curve (log(inhibitor) vs. response-variable slopes). Where the row-data was inserted in GraphPad Prism 7 (Dose response x-log(dose)) and analysed for XY nonlinear regression (curve fit), dose response-inhibition, log(inhibitor) vs response variable slope (four parameters). For the IC90 calculation the log(IC50)=log(IC90)-(1/HillSlope)*log(9) equation was used in EXCEL based on the raw data extracted from xCELLigence system and the dose-response curve.

| Compound | IC50 |
| --- | --- |
| COc1cccc(NC(=O)c2nn3c(-c4cn[nH]c4)cc(N4Cc5ccccc5C4)nc3c2C(C)C)c1 [Compound 72, 5-(isoindolin-2-yl)-3-isopropyl-N-(3-methoxyphenyl)-7-(1H-pyrazol-4-yl)pyrazolo[1,5-a]pyrimidine-2-carboxamide] | 2.91 µM |
| CC(C)c1c(C(=O)Nc2cccc(N3CCOCC3)c2)nn2c(-c3cn[nH]c3)cc(N3Cc4ccc(Cl)cc4C3)nc12 [Compound 108, 5-(5-chloroisoindolin-2-yl)-3-isopropyl-N-(3-morpholinophenyl)-7-(1H-pyrazol-4-yl)pyrazolo[1,5-a]pyrimidine-2-carboxamide] | 18.7 µM |
| COCCOc1ccc(NC(=O)c2nn3c(-c4cn[nH]c4)cc(N4Cc5ccc(Cl)cc5C4)nc3c2C(C)C)cc1 [Compound 109, 5-(5-chloroisoindolin-2-yl)-3-isopropyl-N-(4-(2-methoxyethoxy)phenyl)-7-(1H-pyrazol-4-yl)pyrazolo[1,5-a]pyrimidine-2-carboxamide] | 3.23 µM |
| O=C(Nc1cccc(O)c1)c1nn2c(-c3cn[nH]c3)cc(N3Cc4ccccc4C3)nc2c1C1CC1 [Compound 94, 3-cyclopropyl-N-(3-hydroxyphenyl)-5-(isoindolin-2-yl)-7-(1H-pyrazol-4-yl)pyrazolo[1,5-a]pyrimidine-2-carboxamide] | 6.21 µM |
| CC(=O)N1CCN(c2cccc(NC(=O)c3nn4c(-c5cn[nH]c5)cc(N5Cc6ccc(F)cc6C5)nc4c3C(C)C)c2)CC1 [Compound 79, N-(3-(4-acetylpiperazin-1-yl)phenyl)-5-(5-fluoroisoindolin-2-yl)-3-isopropyl-7-(1H-pyrazol-4-yl)pyrazolo[1,5-a]pyrimidine-2-carboxamide] | 4.05 µM |
| O=C(Nc1cccc(O)c1)c1cc2nc(N3Cc4ccc(F)cc4C3)cc(-c3cn[nH]c3)n2n1 [Compound 64, 5-(5-fluoroisoindolin-2-yl)-N-(3-hydroxyphenyl)-7-(1H-pyrazol-4-yl)pyrazolo[1,5-a]pyrimidine-2-carboxamide] | 9.59 µM |
| CC(=O)Nc1cccc(NC(=O)c2nn3c(-c4cn[nH]c4)cc(N4Cc5ccc(F)cc5C4)nc3c2C(C)C)c1 [Compound 78, N-(3-acetamidophenyl)-5-(5-fluoroisoindolin-2-yl)-3-isopropyl-7-(1H-pyrazol-4-yl)pyrazolo[1,5-a]pyrimidine-2-carboxamide] | 3.03 µM |
| CC(C)c1c(C(=O)Nc2ccc(OC3CCOCC3)cc2)nn2c(-c3cn[nH]c3)cc(N3Cc4ccc(F)cc4C3)nc12 [Compound 123, 5-(5-fluoroisoindolin-2-yl)-3-isopropyl-7-(1H-pyrazol-4-yl)-N-(4-((tetrahydro-2H-pyran-4-yl)oxy)phenyl)pyrazolo[1,5-a]pyrimidine-2-carboxamide] | 1.02 µM |
| CC(C)c1c(C(=O)Nc2cccc(N3CCOCC3)c2)nn2c(-c3cn[nH]c3)cc(N3Cc4ccc(F)cc4C3)nc12 [Compound 101, 5-(5-fluoroisoindolin-2-yl)-3-isopropyl-N-(3-morpholinophenyl)-7-(1H-pyrazol-4-yl)pyrazolo[1,5-a]pyrimidine-2-carboxamide] | 3.99 µM |
| CC(C)c1c(C(=O)Nc2cccc(O)c2)nn2c(-c3cn[nH]c3)cc(N3Cc4ccc(F)cc4C3)nc12 [Compound 99, 5-(5-fluoroisoindolin-2-yl)-N-(3-hydroxyphenyl)-3-isopropyl-7-(1H-pyrazol-4-yl)pyrazolo[1,5-a]pyrimidine-2-carboxamide] | 1.23 µM |
| COCCOc1ccc(NC(=O)c2nn3c(-c4cn[nH]c4)cc(N4Cc5ccc(F)cc5C4)nc3c2C(C)C)cc1 [Compound 102, 5-(5-fluoroisoindolin-2-yl)-3-isopropyl-N-(4-(2-methoxyethoxy)phenyl)-7-(1H-pyrazol-4-yl)pyrazolo[1,5-a]pyrimidine-2-carboxamide] | 1.27 µM |
| COc1ccc(F)c(NC(=O)c2nn3c(-c4cn[nH]c4)cc(N4Cc5ccc(F)cc5C4)nc3c2C(C)C)c1 [Compound 124, N-(2-fluoro-5-methoxyphenyl)-5-(5-fluoroisoindolin-2-yl)-3-isopropyl-7-(1H-pyrazol-4-yl)pyrazolo[1,5-a]pyrimidine-2-carboxamide] | 1.15 µM |
| COc1cccc(NC(=O)c2nn3c(-c4cn[nH]c4)cc(N4Cc5ccc(F)cc5C4)nc3c2C(C)C)c1F [Compound 122, N-(2-fluoro-3-methoxyphenyl)-5-(5-fluoroisoindolin-2-yl)-3-isopropyl-7-(1H-pyrazol-4-yl)pyrazolo[1,5-a]pyrimidine-2-carboxamide] | 9.07 µM |
| CC(C)c1c(C(=O)Nc2ccc(OC3CCOCC3)cc2)nn2c(-c3cn[nH]c3)cc(N3Cc4ccc(Cl)cc4C3)nc12 [Compound 119, 5-(5-chloroisoindolin-2-yl)-3-isopropyl-7-(1H-pyrazol-4-yl)-N-(4-((tetrahydro-2H-pyran-4-yl)oxy)phenyl)pyrazolo[1,5-a]pyrimidine-2-carboxamide] | 3.15 µM |

Next, values leading:

| IC50 | Compound |
| --- | --- |
| 4.36 µM | COc1ccc(CN(C)c2cc(-c3cn[nH]c3)n3nc(C(=O)Nc4ccc(Cl)cc4)cc3n2)cc1 [Compound 38, N-(4-chlorophenyl)-5-((4-methoxybenzyl)(methyl)amino)-7-(1H-pyrazol-4-yl)pyrazolo[1,5-a]pyrimidine-2-carboxamide] |
| 3.58 µM | CN(Cc1ccccc1)c1cc(-c2cn[nH]c2)n2nc(C(=O)Nc3ccc(Cl)cc3)cc2n1 [Compound 29, 5-(benzyl(methyl)amino)-N-(4-chlorophenyl)-7-(1H-pyrazol-4-yl)pyrazolo[1,5-a]pyrimidine-2-carboxamide] |
| 0.81 µM | CN(Cc1ccccc1)c1cc(-c2cn[nH]c2)n2nc(C(=O)Nc3ccc(O)cc3)cc2n1 [Compound 4, 5-(benzyl(methyl)amino)-N-(4-hydroxyphenyl)-7-(1H-pyrazol-4-yl)pyrazolo[1,5-a]pyrimidine-2-carboxamide] |
| 6.9 µM | CN(Cc1ccccc1)c1cc(-c2cn[nH]c2)n2nc(C(=O)Nc3cccc(O)c3)cc2n1 [Compound 1, 5-(benzyl(methyl)amino)-N-(3-hydroxyphenyl)-7-(1H-pyrazol-4-yl)pyrazolo[1,5-a]pyrimidine-2-carboxamide] |
| 6.09 µM | CN(Cc1ccccc1C(F)(F)F)c1cc(-c2cn[nH]c2)n2nc(C(=O)Nc3ccc(Cl)cc3)cc2n1 [Compound 43, N-(4-chlorophenyl)-5-(methyl(2-(trifluoromethyl)benzyl)amino)-7-(1H-pyrazol-4-yl)pyrazolo[1,5-a]pyrimidine-2-carboxamide] |
| 7 µM | CN(Cc1ccccc1Cl)c1cc(-c2cn[nH]c2)n2nc(C(=O)Nc3ccc(Cl)cc3)cc2n1 [Compound 46, 5-((2-chlorobenzyl)(methyl)amino)-N-(4-chlorophenyl)-7-(1H-pyrazol-4-yl)pyrazolo[1,5-a]pyrimidine-2-carboxamide] |
| 1.61 µM | CN(Cc1ccccc1)c1cc(-c2cn[nH]c2)n2nc(C(=O)Nc3cccc(Cl)c3)cc2n1 [Compound 30, 5-(benzyl(methyl)amino)-N-(3-chlorophenyl)-7-(1H-pyrazol-4-yl)pyrazolo[1,5-a]pyrimidine-2-carboxamide] |
| 3.1 µM | CN(Cc1ccccc1)c1cc(-c2cn[nH]c2)n2nc(C(=O)Nc3ccccc3F)cc2n1 [Compound 37, 5-(benzyl(methyl)amino)-N-(2-fluorophenyl)-7-(1H-pyrazol-4-yl)pyrazolo[1,5-a]pyrimidine-2-carboxamide] |
| 3.55 µM | COc1cc(NC(=O)c2cc3nc(N4Cc5ccccc5C4)cc(-c4cn[nH]c4)n3n2)cc(OC)c1 [Compound 51, N-(3,5-dimethoxyphenyl)-5-(isoindolin-2-yl)-7-(1H-pyrazol-4-yl)pyrazolo[1,5-a]pyrimidine-2-carboxamide] |
| 5.76 µM | Cc1c(C(=O)Nc2cccc(O)c2)nn2c(-c3cn[nH]c3)cc(N(C)Cc3ccccc3)nc12 [Compound 68, 5-(benzyl(methyl)amino)-N-(3-hydroxyphenyl)-3-methyl-7-(1H-pyrazol-4-yl)pyrazolo[1,5-a]pyrimidine-2-carboxamide] |
| 9.71 µM | CN(Cc1ccccc1)c1cc(-c2cn[nH]c2)n2nc(C(=O)Nc3cn[nH]c3)cc2n1 [Compound 11, 5-(benzyl(methyl)amino)-N,7-di(1H-pyrazol-4-yl)pyrazolo[1,5-a]pyrimidine-2-carboxamide] |
